For assay [1], the target named is T1, 5-hydroxytryptamine receptor 1A (Rattus norvegicus, UniProt P19327). Note: in other assays of this panel Not Active means under 50% inhibition at 10 µM.
T1 sequence (P19327 whole entry): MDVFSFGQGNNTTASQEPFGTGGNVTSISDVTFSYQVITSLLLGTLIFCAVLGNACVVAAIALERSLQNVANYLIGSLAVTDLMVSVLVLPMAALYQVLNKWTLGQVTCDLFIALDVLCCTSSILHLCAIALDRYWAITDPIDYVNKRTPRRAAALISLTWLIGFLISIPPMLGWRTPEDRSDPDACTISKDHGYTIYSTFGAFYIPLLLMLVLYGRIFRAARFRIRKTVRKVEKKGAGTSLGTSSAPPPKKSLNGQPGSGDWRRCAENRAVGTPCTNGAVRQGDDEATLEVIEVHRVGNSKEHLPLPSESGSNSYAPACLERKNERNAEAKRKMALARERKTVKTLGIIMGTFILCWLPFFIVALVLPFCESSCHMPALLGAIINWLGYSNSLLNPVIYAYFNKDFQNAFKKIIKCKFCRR
The class given is cell membranes, CHO-K1, Membrane. Conditions: for pIC50: read-out: IC50; for pKi: read-out: Ki.

Assay [2] can be described thus: DRUGMATRIX: beta-Lactamase enzyme inhibition (substrate: Nitrocefin). Set-up: species or system Bacillus cereus. Conditions: Not Active = under 50% inhibition at 10 µM.
For assay [3], the target named is Kappa-type opioid receptor (Homo sapiens, UniProt P41145). The assay can be described thus: DRUGMATRIX: Opiate kappa (OP2, KOP) radioligand binding (ligand: [3H] Diprenorphine). The class given is cell membranes, HEK293, Membrane. The note with it: Not Active = under 50% inhibition at 10 µM; for IC50: hek293.
Assay [4] deals with Mitogen-activated protein kinase 14 (Homo sapiens, UniProt Q16539). Set-up: species or system Escherichia coli.
The target of assay [5] is T2, Cysteinyl leukotriene receptor 1 (Homo sapiens, UniProt Q9Y271). Note: in other assays of this panel Not Active means under 50% inhibition at 10 µM.
T2 sequence (Q9Y271 whole entry): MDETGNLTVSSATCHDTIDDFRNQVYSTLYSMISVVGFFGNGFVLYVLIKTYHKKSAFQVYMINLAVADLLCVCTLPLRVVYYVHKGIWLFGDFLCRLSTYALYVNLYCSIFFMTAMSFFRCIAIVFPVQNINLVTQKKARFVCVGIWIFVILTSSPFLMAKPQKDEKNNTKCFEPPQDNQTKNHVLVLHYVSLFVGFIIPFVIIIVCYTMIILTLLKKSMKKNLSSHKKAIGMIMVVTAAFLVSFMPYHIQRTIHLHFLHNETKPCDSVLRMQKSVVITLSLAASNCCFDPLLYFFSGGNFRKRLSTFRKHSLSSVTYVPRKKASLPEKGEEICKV
The class given is cell membranes, CHO-K1, Membrane. The note with it: cho-k1.

Assay [6] in a line: DRUGMATRIX: Phosphodiesterase PDE3 enzyme inhibition (substrate: [3H]cAMP + cAMP). It counts as tissue-based, Homo sapiens. Conditions: platelet; Not Active = under 50% inhibition at 10 µM.
Assay [7] deals with T3, Amine oxidase [flavin-containing] A (Homo sapiens, UniProt P21397).
T3 sequence (P21397 whole entry): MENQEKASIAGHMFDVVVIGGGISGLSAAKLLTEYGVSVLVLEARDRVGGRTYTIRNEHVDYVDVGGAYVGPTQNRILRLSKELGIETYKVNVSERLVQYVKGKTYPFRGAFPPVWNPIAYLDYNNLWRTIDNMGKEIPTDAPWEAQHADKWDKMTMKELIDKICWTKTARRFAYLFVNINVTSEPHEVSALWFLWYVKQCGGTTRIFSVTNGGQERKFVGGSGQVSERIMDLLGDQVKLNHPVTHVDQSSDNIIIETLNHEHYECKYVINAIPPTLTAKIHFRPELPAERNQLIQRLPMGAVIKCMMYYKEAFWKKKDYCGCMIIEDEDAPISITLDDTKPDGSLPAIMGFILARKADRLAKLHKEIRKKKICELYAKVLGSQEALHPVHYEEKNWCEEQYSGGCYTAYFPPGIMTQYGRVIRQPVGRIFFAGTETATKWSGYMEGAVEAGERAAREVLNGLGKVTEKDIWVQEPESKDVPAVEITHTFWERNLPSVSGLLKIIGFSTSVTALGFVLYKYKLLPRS
Description: DRUGMATRIX: Monoamine Oxidase MAO-A enzyme inhibition (substrate: Kynuramine). Set-up: species or system BTI-TN-5B1-4. Conditions: bti-tn-5b1-4; Not Active = under 50% inhibition at 10 µM.

pIC50, pKi: −log10 of the molar value.

Usually pIC50 stands for −log10 of the IC50, conventionally taken in molar units. What is called pKi is −log10 of the Ki, conventionally taken in molar units.

Sequence of Mitogen-activated protein kinase 14 (Q16539 whole entry): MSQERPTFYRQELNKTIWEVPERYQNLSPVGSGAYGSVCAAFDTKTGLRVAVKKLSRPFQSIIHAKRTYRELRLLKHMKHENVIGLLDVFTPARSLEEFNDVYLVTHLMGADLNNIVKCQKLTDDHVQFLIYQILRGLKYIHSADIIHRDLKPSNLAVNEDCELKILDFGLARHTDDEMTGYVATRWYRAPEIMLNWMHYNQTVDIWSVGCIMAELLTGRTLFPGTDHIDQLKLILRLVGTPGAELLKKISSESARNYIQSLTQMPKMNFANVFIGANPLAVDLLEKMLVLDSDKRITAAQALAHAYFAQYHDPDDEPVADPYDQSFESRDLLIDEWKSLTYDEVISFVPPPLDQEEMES
Sequence of Kappa-type opioid receptor (P41145 whole entry): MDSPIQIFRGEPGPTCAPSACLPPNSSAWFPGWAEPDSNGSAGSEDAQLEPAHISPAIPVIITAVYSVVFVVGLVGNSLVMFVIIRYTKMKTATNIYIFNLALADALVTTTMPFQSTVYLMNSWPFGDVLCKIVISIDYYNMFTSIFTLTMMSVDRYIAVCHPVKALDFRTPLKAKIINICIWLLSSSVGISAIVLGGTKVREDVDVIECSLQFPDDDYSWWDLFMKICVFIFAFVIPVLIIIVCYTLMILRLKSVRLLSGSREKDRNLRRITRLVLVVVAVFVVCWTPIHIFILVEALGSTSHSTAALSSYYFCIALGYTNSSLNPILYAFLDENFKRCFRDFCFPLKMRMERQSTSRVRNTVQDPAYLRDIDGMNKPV

`CC(C)(C)NC(=O)[C@@H]1C[C@@H]2CCCC[C@@H]2CN1C[C@@H](O)[C@H](Cc1ccccc1)NC(=O)[C@H](CC(N)=O)NC(=O)c1ccc2ccccc2n1`: the pIC50 in assay [1] was 5.37; in assay [3] (read-out: IC50), 5.16. Moreover, the pKi is 5.61 in assay [1] and 5.56 in assay [3]. In addition, the IC50 entry in assay [2], in assay [4], in assay [5], in assay [6] and in assay [7] was “Not Active” throughout. Besides, the Ki entry in assay [2] and in assay [6] was “Not Active” in each case.

Consider `CC1(C)O[C@@H]2C[C@H]3[C@@H]4CCC5=CC(=O)C=C[C@]5(C)[C@@]4(F)[C@@H](O)C[C@]3(C)[C@]2(C(=O)CO)O1` [TRIAMCINOLONE ACETONIDE], for which the IC50 result in assay [1] (cho-k1), in assay [2], in assay [3], in assay [4], in assay [5] and in assay [6] was “Not Active” throughout. For the same compound, in assay [7], the IC50 entry was “Not Active”. The Ki result in assay [2] and in assay [6] was “Not Active” throughout.

As to `Cc1cccc(N(C)C(=S)Oc2ccc3ccccc3c2)c1` [TOLNAFTATE], the IC50 entry in assay [1] (cho-k1), in assay [2], in assay [3], in assay [4], in assay [5] and in assay [6] was “Not Active” in each case. Besides, the IC50 entry in assay [7] is “Not Active”. Besides, the Ki result in assay [2] and in assay [6] was “Not Active” in each case.

Regarding `C[C@@H]1CN(c2c(F)c(N)c3c(=O)c(C(=O)O)cn(C4CC4)c3c2F)C[C@H](C)N1` [SPARFLOXACIN], the IC50 result in assay [1] (cho-k1), in assay [2], in assay [3], in assay [4], in assay [5] and in assay [6] was “Not Active” in each case. The IC50 result in assay [7] is “Not Active”. Moreover, the Ki entry in assay [2] and in assay [6] was “Not Active” in each case.

Consider `Cn1ccnc1S` [METHIMAZOLE], for which the IC50 result in assay [1] (cho-k1), in assay [2], in assay [3], in assay [4], in assay [5] and in assay [6] was “Not Active” each time. In addition, in assay [7], the IC50 result is listed as “Not Active”. Moreover, the Ki result in assay [2] and in assay [6] was “Not Active” throughout.

As to `CN1CCN(CCCN2c3ccccc3Sc3ccc(Cl)cc32)CC1` [PROCHLORPERAZINE], in assay [1], the pIC50 is 6.02. The pKi in assay [1] is 6.27. The IC50 entry in assay [3], in assay [4], in assay [5] and in assay [7] was “Not Active” in each case.

For `C=CCC1(C(C)CCC)C(=O)NC(=O)NC1=O` (centres undefined) [SECOBARBITAL], the IC50 result in assay [1] (cho-k1), in assay [2], in assay [3], in assay [4], in assay [5] and in assay [6] was “Not Active” each time. Moreover, in assay [7], the IC50 result was “Not Active”. The Ki entry in assay [2] and in assay [6] was “Not Active” throughout.

`N[C@@H](Cc1ccc(N(CCCl)CCCl)cc1)C(=O)O`: the IC50 result in assay [1] (cho-k1), in assay [2], in assay [4], in assay [5], in assay [6] and in assay [7] was “Not Active” in each case. Also, the Ki result in assay [2] and in assay [6] was “Not Active” throughout.

In the case of `Nc1nc2ccc(OC(F)(F)F)cc2s1` [RILUZOLE], the IC50 result in assay [1] (cho-k1), in assay [2], in assay [3], in assay [4], in assay [5] and in assay [6] was “Not Active” in each case. Also, the IC50 entry in assay [7] was “Not Active”. In addition, the Ki entry in assay [2] and in assay [6] was “Not Active” in each case.

Consider `N[C@@H]1[C@H]2CN(c3nc4c(cc3F)c(=O)c(C(=O)O)cn4-c3ccc(F)cc3F)C[C@@H]12` [TROVAFLOXACIN], for which the IC50 entry in assay [1] (cho-k1), in assay [2], in assay [3], in assay [4], in assay [5] and in assay [6] was “Not Active” in each case. For the same compound, the IC50 entry in assay [7] is reported as “Not Active”. The Ki result in assay [2] and in assay [6] was “Not Active” each time.

As to `COc1c(C)c2c(c(O)c1C/C=C(\C)CCC(=O)O)C(=O)OC2` [MYCOPHENOLIC ACID], the IC50 entry in assay [1] (cho-k1), in assay [2], in assay [3], in assay [4], in assay [5] and in assay [6] was “Not Active” each time. In assay [7], the IC50 entry is “Not Active”. In addition, the Ki result in assay [2] and in assay [6] was “Not Active” each time.

Consider `CCCOc1ccccc1-c1nc2nn[nH]c2c(=O)[nH]1` [ZAPRINAST], for which the IC50 entry in assay [1] (cho-k1), in assay [2], in assay [3], in assay [4], in assay [5] and in assay [6] was “Not Active” in each case. Also, the IC50 entry in assay [7] is recorded as “Not Active”. Further, the Ki entry in assay [2] and in assay [6] was “Not Active” each time.

With `Cc1nc2n(c(=O)c1CCN1CCC(c3noc4cc(F)ccc34)CC1)CCCC2` [RISPERIDONE], the IC50 entry in assay [3], in assay [4], in assay [5] and in assay [7] was “Not Active” in each case.

Consider `N[C@@H](Cc1cc(I)c(Oc2ccc(O)c(I)c2)c(I)c1)C(=O)O` [LIOTHYRONINE], for which the IC50 entry in assay [1] (cho-k1), in assay [3], in assay [4], in assay [5] and in assay [7] was “Not Active” throughout.

As for `O=c1ncn2nc(Sc3ccc(F)cc3F)ccc2c1-c1c(Cl)cccc1Cl` [NEFLAMAPIMOD], the IC50 entry in assay [1] (cho-k1), in assay [2], in assay [3], in assay [5], in assay [6] and in assay [7] was “Not Active” throughout. The Ki result in assay [2] and in assay [6] was “Not Active” in each case.

As for `CCCCc1oc2ccccc2c1C(=O)c1cc(I)c(OCCN(CC)CC)c(I)c1` [AMIODARONE], the IC50 entry in assay [1] (cho-k1), in assay [4], in assay [5] and in assay [7] was “Not Active” throughout.

With `CC[C@@H](CO)NC(=O)[C@@H]1C=C2c3cccc4[nH]cc(c34)C[C@H]2N(C)C1` [METHYLERGONOVINE], the negative logarithm of the IC50 (pIC50) in assay [1] is 8.39. Further, the pKi in assay [1] is 8.63. For the same compound, the IC50 result in assay [2], in assay [4], in assay [5], in assay [6] and in assay [7] was “Not Active” in each case. Also, the Ki entry in assay [2] and in assay [6] was “Not Active” throughout.

With `CC/C(=C(\c1ccccc1)c1ccc(OCCN(C)C)cc1)c1ccccc1` [TAMOXIFEN], the pIC50 in assay [1] is 4.92. Also, the pKi in assay [1] was 5.16; in assay [3], 5.20. The IC50 result in assay [4], in assay [5] and in assay [7] was “Not Active” throughout.

With SODIUM NITROPRUSSIDE, the IC50 result in assay [1] (cho-k1), in assay [2], in assay [4], in assay [5], in assay [6] and in assay [7] was “Not Active” in each case. The Ki entry in assay [1] (cho-k1), in assay [2], in assay [4], in assay [5], in assay [6] and in assay [7] was “Not Active” in each case.

The values are drawn from ChEMBL document CHEMBL1909046, “DrugMatrix in vitro pharmacology data”.
